Results as given in paper PMC5057115, “Cathelicidins in the Tasmanian devil (Sarcophilus harrisii)” (Scientific Reports, 2016).
Converted amounts (≈) assume the structure as drawn. Where a SMILES comes first, the peptide text is derived from it. Where no end group is shown, it is not given here.

How the values were obtained:
[1] = test system: 25 bacterial and 6 fungal strains; format: cell-based; conditions: against the bacteria and fungi tested (25 bacterial and 6 fungal strains of Table 2), broth microdilution (CLSI)
Excerpt: To assess the antimicrobial activity of devil cathelicidins, we tested synthesized mature peptides on 25 bacterial and 6 fungal strains (Table 2). As there were no Tasmanian devil specific isolates available, human and veterinary strains were used. The antimicrobial activity of Tasmanian devil cathelicidin mature peptides Saha-CATH1 to 6 against bacteria and fungi is summarised in Table 2. […] As such, these values are not included in Table 2. Saha-CATH3 had highly specific activity, as it was unable to kill any bacteria, but killed Cryptococcus neoformans. […]
Tissue expression of devil cathelicidin prepropeptides was determined by real-time PCR on a range of secretory, immune, reproductive, gastrointestinal and respiratory tissues, as well as BLAST searches of the milk transcriptome. […] The mature peptides of all six devil cathelicidins were synthesised by ChinaPeptides Co. Ltd. and their antimicrobial activity against bacterial and fungal pathogens determined by broth microdilution susceptibility assay according to clinical laboratory standards institute guidelines. Antimicrobial activity was expressed as minimum inhibitory concentration (MIC). Cytotoxicity was assessed in the human cell line A549 and haemolytic activity determined against human blood. Statistical significance of peptide effect on cell survival in comparison to the untreated control was calculated using a one sample t-test. […]

human red blood cells = format: cell-based; conditions: red cells of human, 24 h
Experimental: Tissue expression of devil cathelicidin prepropeptides was determined by real-time PCR on a range of secretory, immune, reproductive, gastrointestinal and respiratory tissues, as well as BLAST searches of the milk transcriptome. Opportunistic tissue samples for real-time PCR were collected from Taronga Zoo (Sydney) from devils which were subject to euthanasia due to old age and advanced disease. […] Ltd. and their antimicrobial activity against bacterial and fungal pathogens determined by broth microdilution susceptibility assay according to clinical laboratory standards institute guidelines. Antimicrobial activity was expressed as minimum inhibitory concentration (MIC). Cytotoxicity was assessed in the human cell line A549 and haemolytic activity determined against human blood. Statistical significance of peptide effect on cell survival in comparison to the untreated control was calculated using a one sample t-test. Pouch microbiome analysis was performed on swabs from the pouch of lactating and non-lactating devils to detect changes in microbe populations. Pouch swab collection was carried out in accordance with the Save the Tasmanian Devil Program and was approved by the Animal Ethics Committee of the University of Sydney (permit number 681). page 3: […] Two antibiotics, ampicillin and tetracycline, were included as a positive control for bacteria, and the […] A well containing cells and media only was used as a “no drug” control to ensure that cultures grew normally. Bacteria were subcultured on Mueller Hinton agar (MHA) or Sheep blood agar (BA) for 24 hours at 35 °C for Staphylococcus spp., Pseudomonas spp., Enterococcus spp. and E.coli, with 5% CO2 for Streptococcus spp., K.pneumoniae, P.multocida, […] Similarly, fungi were subcultured on Sabouraud agar (SAB) at 35 °C for 24 hours prior to the test. Colonies were resuspended in saline and the OD530 measured with a McFarland reader. If necessary the suspension was diluted to 0.45-0.55 McFarland units with saline. […] Assays Antimicrobial activity was expressed as minimum inhibitory concentration (MIC), which was defined as the lowest concentration of cathelicidin preventing visible growth, relative to the negative control. Colonies which grew on agar plates were also counted. Cytotoxicity Cytotoxicity was assessed in the human A549 cell line maintained in Dulbecco’s Modification of Eagle’s Medium (DMEM) supplemented with 10% foetal bovine serum (FBS), 2mM L -glutamine, 50units/mL penicillin and 50μg/mL streptomycin. […] Following incubation for a further 24 hours, cell viability was determined using alamar blue (Invitrogen) which was added to each well. […]

[2] = test system: C. parapsilosis ATCC 22019; experiment: microbe, parasite or virus in culture; format: cell-based; conditions: Lodderomyces parapsilosis, ATCC22019; broth microdilution (CLSI), YNB, 64 to 0.125 μg/mL, 48 hours at 35 °C; ATCC strain; read-out: MIC
Experimental: (§1) Tissue expression of devil cathelicidin prepropeptides was determined by real-time PCR on a range of secretory, immune, reproductive, gastrointestinal and respiratory tissues, as well as BLAST searches of the milk transcriptome. Opportunistic tissue samples for real-time PCR were collected from Taronga Zoo (Sydney) from devils which were subject to euthanasia due to old age and advanced disease. The mature peptides of all six devil cathelicidins were synthesised by ChinaPeptides Co. Ltd. and their antimicrobial activity against bacterial and fungal pathogens determined by broth microdilution susceptibility assay according to clinical laboratory standards institute guidelines. Antimicrobial activity was expressed as minimum inhibitory concentration (MIC). Cytotoxicity was assessed in the human cell line A549 and haemolytic activity determined against human blood. Statistical significance of peptide effect on cell survival in comparison to the untreated control was calculated using a one sample t-test. Pouch microbiome analysis was performed on swabs from the pouch of lactating and non-lactating devils to detect changes in microbe populations. Pouch swab collection was carried out in accordance with the Save the Tasmanian Devil Program and was approved by the Animal Ethics Committee of the University of Sydney (permit number 681). […]
(§2) base (YNB) for fungi, from a concentration of 64μg/mL to 0.125μg/mL in a final volume of 100 μL .
(§3) Two antibiotics, ampicillin and tetracycline, were included as a positive control for bacteria, and the antifungal drug fluconazole for fungi. A well containing cells and media only was used as a “no drug” control to ensure that cultures grew normally. Bacteria were subcultured on Mueller Hinton agar (MHA) or Sheep blood agar (BA) for 24 hours at 35 °C for Staphylococcus spp., Pseudomonas spp., Enterococcus spp. and E.coli, with 5% CO2 for Streptococcus spp., K.pneumoniae, P.multocida, L.monocytogenes and N.asteroides. Similarly, fungi were subcultured on Sabouraud agar (SAB) at 35 °C for 24 hours prior to the test. Colonies were resuspended in saline and the OD530 measured with a McFarland reader. If necessary the suspension was diluted to 0.45-0.55 McFarland units with saline. Following a 1:150 dilution for bacteria and twostep dilution for fungi (1:50, 1:20), 100 μL of microorganisms (1x106 – 5 x10^5 cells/mL) were pipetted into wells 2-12, the first well acting as a negative control. Colony counts were performed using a 1:1000 dilution for bacteria and 1:10 for fungi spread onto MHA/BA or SAB plates respectively. The 96 well microdilution and agar plates were incubated for 24 hours at 35 °C (Escherichia coli, Staphylococcus spp., Enterococcus spp. and Pseudomonas spp.), with 5% CO2 (Streptococcus spp. Pasteurella multocida, Klebsiella pneumoniae, Listeria monocytogenes a nd Nocardia asteroids) for bacteria, and 35 °C for 48 hours (Candida spp .) or 72 hours (Cryptococcus spp.) for fungi. Assays Antimicrobial activity was expressed as minimum inhibitory concentration (MIC), which was defined as the lowest concentration of cathelicidin preventing visible growth, relative to the negative control. […]
(§4) DMEM and positive control of dimethylsulfoxide (DMSO) (1%) were also included. […]
(§5) 570nm and 620nm using the Victor 3 multilabel plate reader (PerkinElmer). The assay was performed on two separate occasions. To x i city of cathelicidins was calculated according to Invitrogen recommendations and expressed as percentage cell survival compared to the untreated growth control. A significant difference between cathelicidin treated and control cell survival was tested using a o ne sample t-test (p<0.05).
(§6) Haemolytic activity was assessed using 10mL of human blood collected into potassium -ED T A vacutainers (BD). The blood was washed three times with 30mL of calcium and magnesium -free Dulbecco’s phosphate buffered saline (DPBS) and cells were collected by centrifugation at 2000 x g […]
(§7) for 10 minutes. […]

S. aureus ATCC 29213 = experiment: microbe, parasite or virus in culture; format: cell-based, Staphylococcus aureus; conditions: Staphylococcus aureus, ATCC29213; broth microdilution (CLSI), 64 to 0.125 μg/mL, 24 h at 35 °C; ATCC strain; read-out: MIC
Experimental: as §1, §2
(§8) Two antibiotics, ampicillin and tetracycline, were included as a positive control for bacteria, and the antifungal drug fluconazole for fungi. A well containing cells and media only was used as a “no drug” control to ensure that cultures grew normally. Bacteria were subcultured on Mueller Hinton agar (MHA) or Sheep blood agar (BA) for 24 hours at 35 °C for Staphylococcus spp., Pseudomonas spp., Enterococcus spp. and E.coli, with 5% CO2 for Streptococcus spp., K.pneumoniae, P.multocida, L.monocytogenes and N.asteroides. Similarly, fungi were subcultured on Sabouraud agar (SAB) at 35 °C for 24 hours prior to the test. Colonies were resuspended in saline and the OD530 measured with a McFarland reader. If necessary the suspension was diluted to 0.45-0.55 McFarland units with saline. […] Assays Antimicrobial activity was expressed as minimum inhibitory concentration (MIC), which was defined as the lowest concentration of cathelicidin preventing visible growth, relative to the negative control. […]
(§9) 570nm and 620nm using the Victor 3 multilabel plate reader (PerkinElmer). […] To x i city of cathelicidins was calculated according to Invitrogen recommendations and expressed as percentage cell survival compared to the untreated growth control. […]
(§10) Haemolytic activity was assessed using 10mL of human blood collected into potassium -ED T A vacutainers (BD). […]

P. aeruginosa ATCC 27853 = experiment: microbe, parasite or virus in culture; format: cell-based, Pseudomonas aeruginosa; conditions: Pseudomonas aeruginosa, ATCC27853; broth microdilution (CLSI), 64 to 0.125 μg/mL, 24 h at 35 °C; ATCC strain; read-out: MIC
Experimental: as §1, §2, §8, §9, §10

E. coli ATCC 25922 = experiment: microbe, parasite or virus in culture; format: cell-based, Escherichia coli; conditions: Escherichia coli, ATCC25922; broth microdilution (CLSI), 64 to 0.125 μg/mL, 24 h at 35 °C, lowest concentration preventing visible growth; ATCC strain; read-out: MIC
Experimental: as §1, §2, §8, §9, §10

E. faecalis ATCC 29212 = experiment: microbe, parasite or virus in culture; format: cell-based, Enterococcus faecalis; conditions: Enterococcus faecalis, ATCC29212; broth microdilution (CLSI), 64 to 0.125 μg/mL, 24 h at 35 °C; ATCC strain; read-out: MIC
Experimental: as §1, §2, §8, §9, §10

S. pneumoniae ATCC 49619 = experiment: microbe, parasite or virus in culture; format: cell-based; conditions: Streptococcus pneumoniae, ATCC49619; broth microdilution (CLSI), 64 to 0.125 μg/mL, 24 h at 35 °C with 5% CO2; ATCC strain; read-out: MIC
Experimental: as §1, §2, §3, §4, §5, §6, §7

## KREDFLDQIIRDFRNFIYQKYRRLRDEFRKLRDILSG [Saha-CATH4]
[1]
  minimum inhibitory concentration (MIC): greater than 64 μg/mL
Human red blood cells
  haemolysis compared with the positive control: below 7%

## OC(Cn1cncn1)(Cn1cncn1)c1ccc(F)cc1F [fluconazole, reference compound]
[2]
  MIC: 2 µg/mL (≈ 6.53 µM)

## TFKRKNGSRKNGHRPGGYSLIALGNKKVLKAPYMESI [Saha-CATH2]
[1]
  minimum inhibitory concentration (MIC): greater than 64 μg/mL
Human red blood cells
  haemolysis compared with the positive control: below 7%

## CC[C@H](C)[C@H](NC(=O)CN)C(=O)N[C@@H](CCCCN)C(=O)N[C@@H](Cc1c[nH]cn1)C(=O)N[C@H](C(=O)N[C@@H](CC(C)C)C(=O)N[C@@H](Cc1ccccc1)C(=O)N[C@@H](CCSC)C(=O)N[C@@H](C)C(=O)N[C@@H](CCCCN)C(=O)N[C@H](C(=O)N[C@@H](CCCCN)C(=O)N[C@@H](CC(C)C)C(=O)N1CCC[C@H]1C(=O)N[C@@H](CCCNC(=N)N)C(=O)N[C@@H](C)C(=O)N[C@H](C(=O)N[C@@H](CS)C(=O)N[C@H](C(=O)N[C@@H](C)C(=O)N[C@@H](CCC(=O)O)C(=O)N[C@H](C(=O)N[C@@H](CCCCN)C(=O)N[C@@H](CCC(=O)O)C(=O)N[C@@H](CC(N)=O)C(=O)N[C@@H](CS)C(=O)N[C@@H](CC(=O)O)C(=O)N[C@@H](CCCNC(=N)N)C(=O)N[C@@H](CCCCN)C(=O)N[C@@H](CCCCN)C(=O)O)[C@@H](C)CC)[C@@H](C)O)[C@@H](C)O)[C@@H](C)O)[C@@H](C)CC [Saha-CATH1] (H-GIKHILFMAKTKLPRATCTAEIKENCDRKK-OH; N-terminus and C-terminus assumed)
Human red blood cells
  haemolysis compared with the positive control: below 7%

## CN(C)[C@@H]1C(O)=C(C(N)=O)C(=O)[C@@]2(O)C(O)=C3C(=O)c4c(O)cccc4[C@@](C)(O)[C@H]3C[C@@H]12 [tetracycline, reference compound]
S. aureus ATCC 29213
  MIC: 0.125 µg/mL (≈ 0.281 µM)
P. aeruginosa ATCC 27853
  MIC: 8 µg/mL (≈ 18 µM)

## CC1(C)S[C@@H]2[C@H](NC(=O)[C@H](N)c3ccccc3)C(=O)N2[C@H]1C(=O)O [ampicillin, reference compound]
E. coli ATCC 25922
  MIC: 8 µg/mL (≈ 22.9 µM)
E. faecalis ATCC 29212
  MIC: 1 µg/mL (≈ 2.86 µM)
S. pneumoniae ATCC 49619
  MIC: 0.125 µg/mL (≈ 0.358 µM)
